Data as given in PMC6652808, “The Inhibitory Effect of GlmU Acetyltransferase Inhibitor TPSA on Mycobacterium tuberculosis May Be Affected Due to Its Methylation by Methyltransferase Rv0560c” (Frontiers in Cellular and Infection Microbiology, 2019).

Target: GlmU (Mycobacterium tuberculosis, UniProt P9WMN3)
Assay: […]; double reciprocal plots; […]
Type: biochemical

Chain of GlmU (P9WMN3 2-495): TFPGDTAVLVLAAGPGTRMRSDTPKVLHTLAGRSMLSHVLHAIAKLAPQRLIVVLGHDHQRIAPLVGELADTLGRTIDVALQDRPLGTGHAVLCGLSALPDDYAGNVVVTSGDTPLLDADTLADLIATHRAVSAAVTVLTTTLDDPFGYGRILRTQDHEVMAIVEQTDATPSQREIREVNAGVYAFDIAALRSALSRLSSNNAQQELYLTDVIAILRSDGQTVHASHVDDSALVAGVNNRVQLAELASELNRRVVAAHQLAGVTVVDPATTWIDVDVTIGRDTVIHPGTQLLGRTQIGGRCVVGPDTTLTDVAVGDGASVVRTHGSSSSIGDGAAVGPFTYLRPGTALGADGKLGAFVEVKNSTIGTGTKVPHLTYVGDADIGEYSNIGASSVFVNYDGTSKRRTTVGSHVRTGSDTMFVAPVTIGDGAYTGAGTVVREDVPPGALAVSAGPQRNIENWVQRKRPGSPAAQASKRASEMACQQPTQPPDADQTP

**Q.** For `O=C(O)Cc1ccc(C(=O)CSc2nccc(-c3cccs3)n2)s1` [TPSA, 2-[5-(2-{[4-(2-thienyl)-2-pyrimidinyl]sulfanyl}acetyl)-2-thienyl]acetic acid], which IC50 is on record?
**A.** Its IC50 is 5.3 ± 0.48 µM.
